Laboratory results from PubChem BioAssay AID248 (DTP/NCI, 2004).
“And” between values parts separate entries of the source, which are not always exact repeats. Identical values can stand only once. Toxic doses and inconclusive results are not listed.

Test system: L1210 leukemia ip in BDF1 mice, survival T/C
Experiment: NCI In Vivo Anticancer Drug Screen. Data for tumor model L1210 Leukemia (intraperitoneal) in B6D2F1 (BDF1) mice
Details: endpoint: mean survival time, higher = longer survival
How it was run: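 Transplantable tumor model; survival measured in treated vs vehicle control mice. Value = treated/control.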

[1] = dose: 50.0 mg/kg/injection, schedule: Q01DX009 (ip), vehicle: saline with Tween-80
[2] = dose: 100.0 mg/kg/injection, schedule: Q01DX009 (ip), vehicle: saline with Tween-80
[3] = dose: 200.0 mg/kg/injection, schedule: Q01DX009 (ip), vehicle: saline with Tween-80
[4] = dose: 200.0 mg/kg/injection, schedule: Q04DX002 (ip), vehicle: saline with Tween-80
[5] = dose: 400.0 mg/kg/injection, schedule: Q04DX002 (ip), vehicle: saline with Tween-80
[6] = dose: 50.0 mg/kg/injection, schedule: Q01DX009 (ip), vehicle: Klucel (hydroxypropylcellulose) (HPC)
[7] = dose: 100.0 mg/kg/injection, schedule: Q01DX009 (ip), vehicle: Klucel (hydroxypropylcellulose) (HPC)
[8] = dose: 200.0 mg/kg/injection, schedule: Q01DX009 (ip), vehicle: Klucel (hydroxypropylcellulose) (HPC)
[9] = dose: 400.0 mg/kg/injection, schedule: Q01DX009 (ip), vehicle: saline with Tween-80
[10] = dose: 100.0 mg/kg/injection, schedule: Q04DX003 (ip), vehicle: saline
[11] = dose: 200.0 mg/kg/injection, schedule: Q04DX003 (ip), vehicle: saline
[12] = dose: 400.0 mg/kg/injection, schedule: Q04DX003 (ip), vehicle: saline
[13] = dose: 100.0 mg/kg/injection, schedule: Q04DX002 (ip), vehicle: Klucel (hydroxypropylcellulose) (HPC)
[14] = dose: 200.0 mg/kg/injection, schedule: Q04DX002 (ip), vehicle: Klucel (hydroxypropylcellulose) (HPC)
[15] = dose: 400.0 mg/kg/injection, schedule: Q04DX002 (ip), vehicle: Klucel (hydroxypropylcellulose) (HPC)

With `CCC1CC2c3cc(OC)c(OC)cc3CCN2CC1(O)c1ccccc1` (configuration not stated) the T/C (dose: 25.0 mg/kg/injection, schedule: Q01DX001 (ip), vehicle: carboxymethylcellulose (CMC)) was 92 % of control, the T/C (dose: 25.0 mg/kg/injection, schedule: Q04DX003 (ip), vehicle: carboxymethylcellulose (CMC)) was 97 % of control and the T/C (dose: 50.0 mg/kg/injection, schedule: Q01DX001 (ip), vehicle: carboxymethylcellulose (CMC)) was 95 % of control. For the same molecule, the T/C (dose: 50.0 mg/kg/injection, schedule: Q04DX003 (ip), vehicle: carboxymethylcellulose (CMC)) was 97 % of control, the T/C (dose: 100.0 mg/kg/injection, schedule: Q01DX001 (ip), vehicle: carboxymethylcellulose (CMC)) was 103 % of control and 109 % of control and the T/C (dose: 100.0 mg/kg/injection, schedule: Q04DX003 (ip), vehicle: carboxymethylcellulose (CMC)) was 100 % of control.
With `c1ccc(-c2cc(-c3ccccc3)c(-c3ccccc3)c(-c3ccccc3)c2-c2ccccc2)cc1` the T/C [1] was 87 % of control, the T/C [2] was 93 % of control and the T/C [3] was 93 % of control.
With `[Co+3].[NH-]CC(=O)O.[NH-]CC(=O)O.[NH-]CC(=O)O` the T/C [4] was 122 % of control and the T/C [5] was 115 % of control.
For `COc1ccc2c(ccc3c2ncc2c(=O)[nH][nH]c23)c1`, the T/C [6] was 92 % of control, the T/C [7] was 92 % of control and the T/C [8] was 92 % of control.
In the case of `OCc1cccc2c1CCC2`, the T/C (dose: 12.5 mg/kg/injection, schedule: Q01DX001 (ip), vehicle: Klucel (hydroxypropylcellulose) (HPC)) is reported as 100 % of control, the T/C (dose: 12.5 mg/kg/injection, schedule: Q01DX009 (ip), vehicle: Klucel (hydroxypropylcellulose) (HPC)) is reported as 104 % of control and the T/C (dose: 25.0 mg/kg/injection, schedule: Q01DX001 (ip), vehicle: Klucel (hydroxypropylcellulose) (HPC)) is reported as 100 % of control. For the same molecule, the T/C (dose: 25.0 mg/kg/injection, schedule: Q01DX009 (ip), vehicle: Klucel (hydroxypropylcellulose) (HPC)) was 96 % of control, the T/C (dose: 50.0 mg/kg/injection, schedule: Q01DX001 (ip), vehicle: Klucel (hydroxypropylcellulose) (HPC)) was 102 % of control and the T/C [6] was 94 % of control.
With `CC(=O)Nc1c(C)cccc1[N+](=O)[O-]` the T/C (dose: 100.0 mg/kg/injection, schedule: Q01DX001 (ip), vehicle: saline with Tween-80) was 94 % of control.
In the case of `O=S(=O)(C(Br)CBr)C(Br)CBr` (configuration not stated), the T/C (dose: 25.0 mg/kg/injection, schedule: Q01DX009 (ip), vehicle: saline with Tween-80) is reported as 94 % of control and the T/C [1] is reported as 107 % of control.
With `CCOC(=O)NOP(=O)(N1CC1)N1CC1` the T/C (dose: 100.0 mg/kg/injection, schedule: Q04DX002 (ip), vehicle: saline) was 153 % of control.
With `O=C(O)/C(=C\c1ccccc1)Sc1ccccc1` the T/C (dose: 75.0 mg/kg/injection, schedule: Q01DX001 (ip), vehicle: acetone) was 105 % of control, the T/C (dose: 150.0 mg/kg/injection, schedule: Q01DX001 (ip), vehicle: acetone) was 98 % of control and the T/C (dose: 300.0 mg/kg/injection, schedule: Q01DX001 (ip), vehicle: acetone) was 100 % of control.
In the case of `O=C1CSCC(=O)O1`, the T/C [6] is reported as 97 % of control, the T/C [7] is reported as 89 % of control and the T/C [8] is reported as 86 % of control.
`CN(C)C(=S)SCC(=O)NC(CO)C(=O)O` (configuration not stated) was tested, and the T/C (dose: 100.0 mg/kg/injection, schedule: Q04DX002 (ip), vehicle: saline with Tween-80) was 100 % of control, the T/C [4] was 107 % of control and the T/C [5] was 111 % of control.
For `COc1ccc([N+](=O)[O-])cc1NC(=O)Nc1nccs1`, the T/C [6] was 105 % of control, the T/C [7] was 105 % of control and the T/C [8] was 101 % of control.
In the case of `CSc1nc(Cl)cc(-c2ccccc2)n1`, the T/C (dose: 200.0 mg/kg/injection, schedule: Q01DX Z (ip), vehicle: methylcellulose (MC)) is reported as 106 % of control.
`OC1(c2ccccc2)c2ccccc2-c2ccccc21` was tested, and the T/C [2] was 101 % of control, the T/C (dose: 100.0 mg/kg/injection, schedule: Q04DX003 (ip), vehicle: saline with Tween-80) was 98 % of control and the T/C [3] was 106 % of control. The T/C (dose: 200.0 mg/kg/injection, schedule: Q04DX003 (ip), vehicle: saline with Tween-80) was 93 % of control, the T/C [9] was 106 % of control and the T/C (dose: 400.0 mg/kg/injection, schedule: Q04DX003 (ip), vehicle: saline with Tween-80) was 95 % of control.
In the case of `CCOC(=O)/C(C#N)=C\c1ccc(N(CC)CC)cc1`, the T/C (dose: 100.0 mg/kg/injection, schedule: Q01DX001 (ip), vehicle: Klucel (hydroxypropylcellulose) (HPC)) is reported as 91 % of control, the T/C (dose: 200.0 mg/kg/injection, schedule: Q01DX001 (ip), vehicle: Klucel (hydroxypropylcellulose) (HPC)) is reported as 86 % of control and the T/C (dose: 400.0 mg/kg/injection, schedule: Q01DX001 (ip), vehicle: Klucel (hydroxypropylcellulose) (HPC)) is reported as 89 % of control.
`Cc1cccc(CC(O)(CC(O)(c2ccccc2)c2ccccc2)c2ccccc2)c1` (configuration not stated) was tested, and the T/C (dose: 100.0 mg/kg/injection, schedule: Q04DX003 (ip), vehicle: acetone) was 96 % of control, the T/C (dose: 200.0 mg/kg/injection, schedule: Q04DX003 (ip), vehicle: acetone) was 98 % of control and the T/C (dose: 400.0 mg/kg/injection, schedule: Q04DX003 (ip), vehicle: acetone) was 97 % of control.
In the case of `O=P(N(CCCl)CCCl)(N1CCCCC1)N1CCCCC1`, the T/C (dose: 50.0 mg/kg/injection, schedule: Q01DX Z (ip), vehicle: saline) is reported as 86 % of control, the T/C (dose: 100.0 mg/kg/injection, schedule: Q01DX Z (ip), vehicle: saline) is reported as 88 % of control and the T/C (dose: 200.0 mg/kg/injection, schedule: Q01DX Z (ip), vehicle: saline) is reported as 90 % of control.
In the case of `O=C(O)c1cccc(I)c1.[Ni]`, the T/C (dose: 25.0 mg/kg/injection, schedule: Q04DX002 (ip), vehicle: gum acacia) is reported as 100 % of control and the T/C (dose: 50.0 mg/kg/injection, schedule: Q04DX002 (ip), vehicle: gum acacia) is reported as 94 % of control.
`CC12OC3(C)C4C(=O)OC1C1(C)OC4(C)C3C(=O)OC21` was tested, and the T/C [2] was 102 % of control, the T/C [3] was 101 % of control and the T/C [9] was 98 % of control.
In the case of `COC(=O)/C=C1/Nc2cc(Cl)c(OC)cc2C(=O)NC1=O`, the T/C (dose: 75.0 mg/kg/injection, schedule: Q04DX003 (ip), vehicle: other) is reported as 91 % of control and the T/C (dose: 150.0 mg/kg/injection, schedule: Q04DX003 (ip), vehicle: other) is reported as 91 % of control.
With `CCCCNC(=O)C1CC2c3c(Br)ccc4c3C(CC2N(C)C1)CN4C(C)=O` (configuration not stated) the T/C (dose: 20.0 mg/kg/injection, schedule: Q01DX001 (ip), vehicle: Klucel (hydroxypropylcellulose) (HPC)) was 98 % of control.
With `c1ccncc1` the T/C (dose: 6.25 mg/kg/injection, schedule: Q01DX009 (ip), vehicle: alcohol) was 96 % of control, the T/C (dose: 12.5 mg/kg/injection, schedule: Q01DX009 (ip), vehicle: alcohol) was 93 % of control and the T/C (dose: 25.0 mg/kg/injection, schedule: Q01DX009 (ip), vehicle: alcohol) was 93 % of control. For the same molecule, the T/C [7] was 88 % of control, the T/C (dose: 100.0 mg/kg/injection, schedule: Q01DX009 (ip), vehicle: saline) was 93 % of control and the T/C (dose: 100.0 mg/kg/injection, schedule: Q04DX003 (ip), vehicle: Klucel (hydroxypropylcellulose) (HPC)) was 101 % of control. For the same molecule, the T/C [10] was 101 % of control, the T/C (dose: 200.0 mg/kg/injection, schedule: Q01DX009 (ip), vehicle: saline) was 93 % of control and the T/C (dose: 200.0 mg/kg/injection, schedule: Q04DX003 (ip), vehicle: Klucel (hydroxypropylcellulose) (HPC)) was 106 % of control. For the same molecule, the T/C [11] was 89 % of control, the T/C (dose: 400.0 mg/kg/injection, schedule: Q01DX009 (ip), vehicle: saline) was 86 % of control and the T/C (dose: 400.0 mg/kg/injection, schedule: Q04DX003 (ip), vehicle: Klucel (hydroxypropylcellulose) (HPC)) was 95 % of control. The T/C [12] was 91 % of control.
In the case of `O=C(O)c1c2c(nc3ccccc13)CCC(C(=O)O)C2` (configuration not stated), the T/C [13] is reported as 95 % of control, the T/C [14] is reported as 95 % of control and the T/C [15] is reported as 103 % of control.
In the case of `C/C(=N\Sc1cccc([N+](=O)[O-])c1)c1ccccc1O`, the T/C [13] is reported as 105 % of control, the T/C [14] is reported as 94 % of control and the T/C [15] is reported as 94 % of control.
With `COc1cc(C)c2ccc3ccccc3c2n1` the T/C (dose: 100.0 mg/kg/injection, schedule: Q01DX001 (ip), vehicle: other) was 93 % of control, the T/C (dose: 200.0 mg/kg/injection, schedule: Q01DX001 (ip), vehicle: other) was 95 % of control and the T/C (dose: 400.0 mg/kg/injection, schedule: Q01DX001 (ip), vehicle: other) was 97 % of control.
In the case of `COc1ccc(CN=C(N)CSS(=O)(=O)O)cc1`, the T/C (dose: 12.5 mg/kg/injection, schedule: Q04DX002 (ip), vehicle: Klucel (hydroxypropylcellulose) (HPC)) is reported as 97 % of control and the T/C (dose: 25.0 mg/kg/injection, schedule: Q04DX002 (ip), vehicle: Klucel (hydroxypropylcellulose) (HPC)) is reported as 97 % of control.
In the case of `CC(=O)On1nnc2c(Cl)c(Cl)c(Cl)c(Cl)c21`, the T/C [10] is reported as 94 % of control, the T/C [11] is reported as 94 % of control and the T/C [12] is reported as 87 % of control.
